Active and inactive are the calls of the source.
Test system: INS1
Experiment: INS-1E survival protection against cytokine death – cell-based, luminescence, retest, dose response (AID 449756);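 further: cell death triggered by IL-1 beta plus TNF-alpha plus IFN-gamma mixture; protective hits raise ATP signal compared with cytokine alone wells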
Type: functional
Settings: Rattus norvegicus

SMILES	AC50
O=C(NCC#CCSc1nnc(-c2cccc3ccccc23)o1)c1cccs1	2.51 µM (active)
CC#CC[N+](C)(C)CCCCCCCC	28.7 µM (active)

Molecular target: T1, Rac GTPase-activating protein 1 (Homo sapiens, UniProt Q9H0H5)
T1 sequence (Q9H0H5 whole entry): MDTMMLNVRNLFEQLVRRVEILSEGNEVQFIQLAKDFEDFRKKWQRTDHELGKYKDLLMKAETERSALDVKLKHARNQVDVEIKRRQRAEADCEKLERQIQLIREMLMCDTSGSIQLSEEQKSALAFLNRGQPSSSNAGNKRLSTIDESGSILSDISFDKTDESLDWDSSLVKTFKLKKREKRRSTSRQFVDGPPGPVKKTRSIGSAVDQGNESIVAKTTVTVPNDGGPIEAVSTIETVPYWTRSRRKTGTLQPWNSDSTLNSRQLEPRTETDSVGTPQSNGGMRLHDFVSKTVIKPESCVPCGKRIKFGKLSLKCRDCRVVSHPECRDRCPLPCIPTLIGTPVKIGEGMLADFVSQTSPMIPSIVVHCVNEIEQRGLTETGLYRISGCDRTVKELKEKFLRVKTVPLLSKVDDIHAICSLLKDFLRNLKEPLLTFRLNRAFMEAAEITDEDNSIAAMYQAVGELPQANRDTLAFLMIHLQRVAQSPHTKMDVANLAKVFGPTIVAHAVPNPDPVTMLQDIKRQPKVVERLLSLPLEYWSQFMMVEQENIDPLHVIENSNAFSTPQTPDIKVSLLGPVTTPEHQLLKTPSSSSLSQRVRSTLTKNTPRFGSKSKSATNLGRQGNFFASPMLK
Experiment: blockers of MgcRacGAP-driven Rac1 GTP hydrolysis – biochemical, ADP Hunter fluorescence, primary and confirmatory, confirmation (AID 624330)
Type: functional
Settings: not given

SMILES	IC50
COc1ccc(NCc2ccsc2)cc1	29.6 µM (active)
Cc1ccc(CNc2ccc(N3CCOCC3)cc2)s1	20.1 µM (active)
CCN(CC)CCNCC(=O)Nc1ccc(Oc2ccccc2)cc1	119 µM (active)
COc1cc(CNc2ccc(N3CCOCC3)cc2)cc(Br)c1OC	15.4 µM (active)
CCN(CC)c1ccc(NC(=O)CSC(=O)c2ccccc2)cc1	83.9 µM (active)
COc1ccc(CN2CCN(C(C)C(=O)N(C)Cc3cccc(F)c3)CC2)cc1OC (centres undefined)	76.2 µM (active)
COc1ccc(NC(=O)C(C)N2CCN(C)CC2)cc1 (centres undefined)	78.1 µM (active)
O=C(CN1CCCCCC1)NCC1CCCO1 (centres undefined)	117 µM (active)
CC1CC(C)CN(C2CCN(Cc3cccnc3)CC2)C1 (centres undefined)	49.6 µM (active)
CCC(=O)c1ccccc1OCCN1CCN(CC)CC1	88.2 µM (active)
CCOC(=O)c1[nH]c2cc(OC)c(OC)cc2c1N	35 µM (active)
O=[N+]([O-])c1ccc2c(c1)Cc1cc(O)ccc1-2	16.7 µM (active)
O=C(CSc1nnc(C2CC2)n1C1CC1)N1CCN(c2ccc(O)cc2)CC1	30.2 µM (active)
CCN(CC)S(=O)(=O)c1cccc(C(=O)N/N=C/c2ccc(OC)c(O)c2)c1	76.7 µM (active)

Molecular target: Cytochrome P450 2C9 (Homo sapiens, UniProt P11712)
Sequence (P11712 whole entry): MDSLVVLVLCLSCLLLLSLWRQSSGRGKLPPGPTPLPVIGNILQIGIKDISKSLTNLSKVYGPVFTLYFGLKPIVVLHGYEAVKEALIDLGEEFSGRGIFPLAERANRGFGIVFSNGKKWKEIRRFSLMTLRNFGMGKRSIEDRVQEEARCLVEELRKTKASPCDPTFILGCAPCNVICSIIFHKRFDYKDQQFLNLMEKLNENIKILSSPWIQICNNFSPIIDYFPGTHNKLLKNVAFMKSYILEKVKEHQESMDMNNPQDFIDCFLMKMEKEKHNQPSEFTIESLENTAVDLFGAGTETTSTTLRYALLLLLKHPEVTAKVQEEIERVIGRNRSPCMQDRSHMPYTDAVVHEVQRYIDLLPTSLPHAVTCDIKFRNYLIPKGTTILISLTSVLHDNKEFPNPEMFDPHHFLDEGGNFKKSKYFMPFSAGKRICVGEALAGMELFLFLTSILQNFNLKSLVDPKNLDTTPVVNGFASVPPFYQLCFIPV
Settings: not given

SMILES	AC50
Cc1ccc(/C=C/C(=O)NC(=S)Nc2ccccc2C(=O)NC2CCCCC2)cc1	7.08 µM (inconclusive)
c1csc(CNc2nc(-c3ccc4c(c3)OCO4)nc3ccccc23)c1	1.58 µM (inconclusive)
N#CCCn1c(=O)c(-c2ccccc2)nc2cnc(Oc3cccc(Cl)c3)nc21	7.94 µM (inconclusive)
NCCSCc1ccccc1Cl	3.98 µM (inconclusive)
COc1ccc(Oc2ncc3nc(-c4ccc(Cl)cc4)c(=O)n(CCC#N)c3n2)cc1	7.94 µM (inconclusive)
C=CCN(CC=C)C(=S)NC(=O)c1ccc(OC)c(Br)c1	15.8 µM (inconclusive)
O=C(NNC(=O)c1ccc2c(c1)C(=O)N(C1CCCCC1)C2=O)c1cccnc1	15.8 µM (inconclusive)
O=C(O)CSc1cc(-c2ccccc2)nc2ccccc12	3.16 µM (inconclusive)

Test system: not listed separately
Experiment: NIH3T3 cell viability loss – ATP luminescence, mouse fibroblasts, counter-screen, dose response (AID 2010);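 further: cells exposed to compound for about 90 hours before reading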
Type: functional, cell-based
Settings: not given

SMILES	EC50
O=[N+]([O-])c1cc(-c2nnc(Nc3ccccc3)c3ccccc23)ccc1N1CCOCC1	> 30 µM (not active)
Cc1ccc(C)c(NS(=O)(=O)c2cc(C(=O)N3CCc4ccccc4C3)ccc2Cl)c1	> 60 µM (not active)
c1ccc(COc2ccc(OCCN3CCCC3)cc2)cc1	13.1 µM (active)
Cc1nn2c(SCC(=O)c3cccs3)cc(C(C)(C)C)nc2c1-c1ccccc1	> 60 µM (not active)
Cc1ccccc1C1c2[nH]c3ccccc3c2CCN1Cc1cccn1-c1ncccn1 (centres undefined)	> 60 µM (not active)
O=S(=O)(N1CCCCC1)N1CCN(CC(O)COc2ccc3cc(Br)ccc3c2)CC1 (centres undefined)	> 60 µM (not active)
COc1ccc(OCCOCCN2CCc3ccccc3C2)cc1	> 60 µM (not active)
N#C/C(=C\c1c(Cl)cccc1Cl)c1nn(-c2ccccc2)c(-n2cccc2)c1C#N	> 60 µM (not active)
CCOC(=O)c1cn2nc(-c3ccc(OC)cc3)cc2nc1C1CCN(C(=O)OC(C)(C)C)CC1	> 60 µM (not active)
c1ccc(Cn2nnnc2C(c2cccnc2)N2CCN(c3ccccc3)CC2)cc1 (centres undefined)	> 60 µM (not active)
CC(C)CCNc1nc(N2CCCC2)c2c(c1C#N)CCN(C)C2	> 60 µM (not active)
COc1ccc(C2=NN(C(=O)c3cccs3)C(c3ccccc3O)C2)cc1 (centres undefined)	> 60 µM (not active)
Cc1cc(C)c(OCCCCN(C)C)c(Br)c1	> 60 µM (inconclusive)

Test system: Streptococcus sp. 'group A'
Experiment: Streptococcus pyogenes SK(-)GAS viability under kanamycin – luminescence, BacTiterGlo, confirmation, counter-screen for streptokinase expression inhibitor project, dose response (AID 1900)
Type: functional, organism-based
Settings: not given

SMILES	EC50
COCCSc1ccccc1C(=O)N1CCCC(C)C1 (centres undefined)	> 150 µM (not active)

Molecular target: T2, Heat shock factor protein 1 (Mus musculus, UniProt P38532)
T2 sequence (P38532 whole entry): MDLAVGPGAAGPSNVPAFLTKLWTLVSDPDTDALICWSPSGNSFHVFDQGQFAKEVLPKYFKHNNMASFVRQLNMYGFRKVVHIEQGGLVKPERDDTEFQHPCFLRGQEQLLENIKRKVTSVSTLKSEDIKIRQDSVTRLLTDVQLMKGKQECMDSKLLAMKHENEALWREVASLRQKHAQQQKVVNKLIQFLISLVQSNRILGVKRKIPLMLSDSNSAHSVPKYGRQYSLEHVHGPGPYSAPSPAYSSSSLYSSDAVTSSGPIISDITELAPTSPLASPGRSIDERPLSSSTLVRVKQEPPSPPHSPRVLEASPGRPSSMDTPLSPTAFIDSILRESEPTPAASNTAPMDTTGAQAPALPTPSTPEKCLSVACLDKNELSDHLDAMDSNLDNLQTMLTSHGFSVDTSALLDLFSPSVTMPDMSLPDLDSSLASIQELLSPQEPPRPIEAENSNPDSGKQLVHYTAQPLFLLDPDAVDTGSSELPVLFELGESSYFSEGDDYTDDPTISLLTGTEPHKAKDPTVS
Experiment: decrease of HSF1-responsive luciferase luminescence – cell-based, NIH3T3, dose retest, confirmation (AID 2382);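 further: NIH3T3 fibroblasts with HSF1-driven luciferase reporter stressed by proteasome inhibitor MG132; luminescence from HSF1-driven luciferase expression after 8 hours of MG132 stress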
Type: functional
Settings: not given

SMILES	EC50
CSCCC(NS(=O)(=O)c1cccs1)C(=O)NCc1ccccc1 (centres undefined)	> 195 µM (not active)
COc1ccc(CNC(C)CCc2ccccc2)cc1 (centres undefined)	> 195 µM (not active)
CCOc1ccc(CNC(=O)CCS(=O)(=O)c2ccc3c(c2)oc(=O)n3C)cc1	> 195 µM (not active)
Cc1ccc(CN2CCN(Cc3cc4ccccc4o3)CC2CCO)cc1 (centres undefined)	> 195 µM (not active)
COc1ccc(C(=O)CSc2nc(C)cc(O)n2)cc1C	> 195 µM (not active)
Cc1nc2ccc(NC(=O)N3CCSCC3)cc2s1	> 195 µM (not active)
Cc1cccc(N(C(=O)c2ccco2)C(C(=O)NC2CCCC2)c2cccnc2)c1C (centres undefined)	> 195 µM (not active)
Cc1cc2cc(CCNC(=O)C(=O)c3c[nH]c4ccccc34)c(O)nc2cc1C	21.1 µM (active)
CC(C)CC(C(=O)Nc1cccc(O)c1)N1C(=O)c2ccccc2C1=O (centres undefined)	> 195 µM (not active)
COC(=O)c1ccc(N=NNc2ccc(C(=O)OC)cc2)cc1	> 195 µM (not active)
COC(=O)c1cc(COc2ccc3oc(C)c(C(=O)OC(C)C)c3c2)c(C)o1	> 195 µM (not active)
O=S(=O)(N1CCCCC1)n1nnc2ccccc21	> 195 µM (not active)
CCn1cc(C(=O)NCCCN2CC(C)CC(C)C2)c(=O)c2cc(S(=O)(=O)N(C)C)ccc21 (centres undefined)	> 195 µM (not active)
CC(=O)OC1(c2ccccc2)CCN(C)C2CCCCC21 (centres undefined)	> 195 µM (not active)
C/C(=N\OCC(=O)Nn1c(=O)[nH]c2ccccc2c1=O)c1cccs1	> 195 µM (not active)
CCn1nc(C)c(/C=N/NC(=O)c2c[nH]c3ccccc23)c1C	> 195 µM (not active)
O=C1OC2(CCCCC2)OC(O)=C1/C=N/c1nccs1	> 195 µM (not active)

Test system: not listed separately
Experiment: viability of uninfected HEp-2 cells – cell-based, HTS, cytotoxicity control for RSV inhibitor project, dose response (AID 2410)
Type: functional
Settings: human respiratory syncytial virus

SMILES	CC50
CCCNC(=O)c1c(N)n(Cc2ccco2)c2nc3ccccc3nc12	29.8 µM (active)
Cc1cc(/C=C2\C(=N)N3N=C(C(C)C)SC3=NC2=O)c(C)n1Cc1ccccc1	21.5 µM (active)
CC1CCCN(S(=O)(=O)c2ccc(NC(=O)c3cccc(-n4cnnn4)c3)cc2)C1 (centres undefined)	16.4 µM (active)
Cc1ccc(-c2nc(Nc3ccc(N4CCOCC4)cc3)c3ccccc3n2)cc1	18.6 µM (active)
Cc1nc2c(ccc3nc(NC(=O)C(c4ccccc4)c4ccccc4)sc32)s1	5.99 µM (active)
CCOc1ccc(-c2cn(S(=O)(=O)c3cccc4nsnc34)nc2N)cc1	> 50 µM (active)
O=C(COc1ccccc1)Nc1ccc(N2CCN(C(=O)c3ccco3)CC2)cc1	23.6 µM (active)
Cc1cc(C(=O)CSc2ccc(F)cc2)cc(C)c1O	22 µM (active)
COc1cccc(-c2nn(-c3ccccc3)cc2/C=C\C(=O)c2cccs2)c1	24.3 µM (active)
CCOc1ccccc1/N=N/c1c(C)[nH]n(C(N)=S)c1=O	33.1 µM (active)

Test system: not listed separately
Experiment: Trypanosoma cruzi growth suppression in host cells – NIH3T3 host cells, beta-gal luminescence, confirmation (AID 2044);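 further: intracellular parasites grown in NIH/3T3 mouse fibroblasts as host cells; luminescent beta-galactosidase reporter signal from transgenic T. cruzi replicating inside host cells; inhibitors lower the luminescence signal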
Type: functional, cell-based
Settings: not given

SMILES	EC50
O=[N+]([O-])c1cc(-c2nnc(Nc3ccccc3)c3ccccc23)ccc1N1CCOCC1	1.28 µM (active)
Cc1ccc(C)c(NS(=O)(=O)c2cc(C(=O)N3CCc4ccccc4C3)ccc2Cl)c1	2.06 µM (active)
c1ccc(COc2ccc(OCCN3CCCC3)cc2)cc1	1.18 µM (active)
Cc1nn2c(SCC(=O)c3cccs3)cc(C(C)(C)C)nc2c1-c1ccccc1	2.66 µM (active)
Cc1ccccc1C1c2[nH]c3ccccc3c2CCN1Cc1cccn1-c1ncccn1 (centres undefined)	1.26 µM (active)
O=S(=O)(N1CCCCC1)N1CCN(CC(O)COc2ccc3cc(Br)ccc3c2)CC1 (centres undefined)	2.31 µM (active)
COc1ccc(OCCOCCN2CCc3ccccc3C2)cc1	0.141 µM (active)
N#C/C(=C\c1c(Cl)cccc1Cl)c1nn(-c2ccccc2)c(-n2cccc2)c1C#N	1.29 µM (active)
CCOC(=O)c1cn2nc(-c3ccc(OC)cc3)cc2nc1C1CCN(C(=O)OC(C)(C)C)CC1	1.55 µM (active)
Cc1cnc(C(=O)Nc2cccc3cccnc23)cn1	2.22 µM (active)
c1ccc(Cn2nnnc2C(c2cccnc2)N2CCN(c3ccccc3)CC2)cc1 (centres undefined)	0.534 µM (active)
CC(C)CCNc1nc(N2CCCC2)c2c(c1C#N)CCN(C)C2	0.1 µM (active)
COc1ccc(C2=NN(C(=O)c3cccs3)C(c3ccccc3O)C2)cc1 (centres undefined)	3.01 µM (active)
Cc1cc(C)c(OCCCCN(C)C)c(Br)c1	0.46 µM (active)

Molecular target: Cytochrome P450 3A4 (Homo sapiens, UniProt P08684);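 further: CYP3A4 tested as one member of a cytochrome P450 panel screen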
Sequence (P08684 whole entry): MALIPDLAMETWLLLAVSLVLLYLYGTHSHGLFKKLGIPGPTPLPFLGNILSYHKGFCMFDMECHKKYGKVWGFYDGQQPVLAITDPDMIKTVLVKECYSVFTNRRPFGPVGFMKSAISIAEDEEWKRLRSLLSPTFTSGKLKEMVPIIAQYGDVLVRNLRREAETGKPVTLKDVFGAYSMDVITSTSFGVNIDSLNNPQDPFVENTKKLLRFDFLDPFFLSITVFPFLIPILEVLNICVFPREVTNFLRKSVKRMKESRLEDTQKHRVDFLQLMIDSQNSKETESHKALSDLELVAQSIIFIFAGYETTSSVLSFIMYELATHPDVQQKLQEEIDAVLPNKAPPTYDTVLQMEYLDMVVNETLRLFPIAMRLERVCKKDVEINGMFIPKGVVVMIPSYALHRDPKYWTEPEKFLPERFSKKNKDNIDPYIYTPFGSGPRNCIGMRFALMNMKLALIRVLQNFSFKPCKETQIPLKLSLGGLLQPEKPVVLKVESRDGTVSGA
Settings: not given

SMILES	AC50
Cc1ccccc1-c1nc(N(C)Cc2ccco2)c2ccccc2n1	25.1 µM (inconclusive)
CCOC(=O)CSc1ncc(OC)c(Sc2ccc(Cl)cc2)n1	25.1 µM (inconclusive)
CCOC(=O)c1c(CC(C)C)csc1NC=O	22.4 µM (inconclusive)
CCNc1ncc2nc(CCc3ccccc3)c(=O)n(CCOC)c2n1	15.8 µM (inconclusive)

Test system: Streptococcus
Experiment: GAS UMAA2166 growth inhibition – luminescence, BacTiterGlo, counter-screen for streptokinase expression inhibitor project, dose response (AID 1915);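 further: potency for reduction of bacterial viability or growth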
Type: functional, organism-based
Settings: not given

SMILES	EC50
COCCSc1ccccc1C(=O)N1CCCC(C)C1 (centres undefined)	> 150 µM (not active)

Reference: ChEMBL document CHEMBL1201862, “PubChem BioAssay data set” (2004)
